Test results taken from ChEMBL document CHEMBL3352506, “Betulin derivatives impair Leishmania braziliensis viability and host-parasite interaction” (Bioorg Med Chem, 2014).
Active and inactive are the calls of the source. No cut-off for these calls is given here.

Experiments:
Leishmania braziliensis [1] = experiment: Leishmanicidal activity against Leishmania braziliensis assessed as reduction in parasite migration at 10^-6 M after 30 mins by chemotactic assay; format: functional, organism-based
Leishmania braziliensis [2] = experiment: Antiparasitic activity against Leishmania braziliensis assessed as inhibition of infection with mouse J774.A1 cells measured as 5 to 10 parasites per cell at 1 x 10^-7 M after 4 hrs; format: functional; design: scale not given: the % may be the effect or the level left
Leishmania braziliensis [3] = experiment: Antiparasitic activity against Leishmania braziliensis assessed as inhibition of infection with mouse J774.A1 cells measured as >10 parasites per cell at 1 x 10^-7 M after 4 hrs; format: functional; design: scale not given: the % may be the effect or the level left
Leishmania braziliensis [4] = experiment: Antiparasitic activity against Leishmania braziliensis assessed as inhibition of infection with mouse J774.A1 cells measured as <5 parasites per cell at 1 x 10^-9 M after 4 hrs; format: functional; design: scale not given: the % may be the effect or the level left
Leishmania braziliensis [5] = experiment: Antiparasitic activity against Leishmania braziliensis assessed as inhibition of infection with mouse J774.A1 cells measured as <5 parasites per cell at 1 x 10^-8 M after 4 hrs; format: functional; design: scale not given: the % may be the effect or the level left
J774.A1 = experiment: Cytotoxicity against mouse J774.A1 cells; format: cell-based
Leishmania braziliensis [6] = experiment: Antiparasitic activity against Leishmania braziliensis assessed as inhibition of infection with mouse J774.A1 cells measured as >10 parasites per cell at 1 x 10^-9 M after 4 hrs; format: functional; design: scale not given: the % may be the effect or the level left
Leishmania braziliensis [7] = experiment: Antiparasitic activity against Leishmania braziliensis assessed as inhibition of infection with mouse J774.A1 cells measured infected cells […] at 1 x 10^-8 M after 4 hrs; format: functional; design: scale not given: the % may be the effect or the level left
Leishmania braziliensis [8] = experiment: Antiparasitic activity against Leishmania braziliensis assessed as inhibition of infection with mouse J774.A1 cells measured attached parasites at 1 x 10^-9 M after 4 hrs; format: functional; design: scale not given: the % may be the effect or the level left
Leishmania braziliensis [9] = experiment: Antiparasitic activity against Leishmania braziliensis assessed as inhibition of infection with mouse J774.A1 cells measured attached parasites at 1 x 10^-8 M after 4 hrs; format: functional; design: scale not given: the % may be the effect or the level left
Leishmania braziliensis [10] = experiment: Antiparasitic activity against Leishmania braziliensis assessed as inhibition of infection with mouse J774.A1 cells measured attached parasites at 1 x 10^-7 M after 4 hrs; format: functional; design: scale not given: the % may be the effect or the level left
Leishmania braziliensis [11] = experiment: Antiparasitic activity against Leishmania braziliensis assessed as inhibition of infection with mouse J774.A1 cells measured as <5 parasites per cell at 1 x 10^-7 M after 4 hrs; format: functional; design: scale not given: the % may be the effect or the level left
Leishmania braziliensis [12] = experiment: Antiparasitic activity against Leishmania braziliensis assessed as inhibition of infection with mouse J774.A1 cells measured infected cells […] at 1 x 10^-9 M after 4 hrs; format: functional; design: scale not given: the % may be the effect or the level left
[13] = Selectivity index, ratio of IC50 for mouse J774.A1 cells to IC50 for Leishmania braziliensis; format: toxicity, cell-based; settings: J774.A1 cells versus Leishmania braziliensis, read-out: Ratio IC50
Leishmania braziliensis [14] = experiment: Antiparasitic activity against Leishmania braziliensis assessed as inhibition of infection with mouse J774.A1 cells measured infected cells […] at 1 x 10^-7 M after 4 hrs; format: functional; design: scale not given: the % may be the effect or the level left
Leishmania braziliensis [15] = experiment: Leishmanicidal activity against Leishmania braziliensis assessed as dead cells at 10^-6 M after 30 mins by chemotactic assay; format: functional; settings: 0.5 h
Leishmania braziliensis [16] = experiment: Antiparasitic activity against Leishmania braziliensis assessed as inhibition of growth after 72 hrs; format: functional, organism-based
Leishmania braziliensis [17] = experiment: Antiparasitic activity against Leishmania braziliensis assessed as inhibition of infection with mouse J774.A1 cells measured as 5 to 10 parasites per cell at 1 x 10^-8 M after 4 hrs; format: functional; design: scale not given: the % may be the effect or the level left
Leishmania braziliensis [18] = experiment: Antiparasitic activity against Leishmania braziliensis assessed as inhibition of infection with mouse J774.A1 cells measured as >10 parasites per cell at 1 x 10^-8 M after 4 hrs; format: functional; design: scale not given: the % may be the effect or the level left
Leishmania braziliensis [19] = experiment: Antiparasitic activity against Leishmania braziliensis assessed as inhibition of infection with mouse J774.A1 cells measured as 5 to 10 parasites per cell at 1 x 10^-9 M after 4 hrs; format: functional; design: scale not given: the % may be the effect or the level left
Leishmania braziliensis [20] = experiment: Antiparasitic activity against Leishmania braziliensis assessed as inhibition of growth after 72 hrs at 10 uM; format: functional
Leishmania braziliensis [21] = experiment: Leishmanicidal activity against Leishmania braziliensis assessed as dead cells at 10^-12 to 10^-7 M after 30 mins by chemotactic assay; format: functional, organism-based
Leishmania braziliensis [22] = experiment: Antiparasitic activity against Leishmania braziliensis assessed as inhibition of infection with mouse J774.A1 cells measured as 5 to 10 parasites per cell at 1 uM after 4 hrs; format: functional; design: scale not given: the % may be the effect or the level left
Leishmania braziliensis [23] = experiment: Antiparasitic activity against Leishmania braziliensis assessed as inhibition of infection with mouse J774.A1 cells measured infected cells at 1 uM after 4 hrs; format: functional; design: scale not given: the % may be the effect or the level left
Leishmania braziliensis [24] = experiment: Antiparasitic activity against Leishmania braziliensis assessed as inhibition of infection with mouse J774.A1 cells measured attached parasites at 1 uM after 4 hrs; format: functional; design: scale not given: the % may be the effect or the level left
Leishmania braziliensis [25] = experiment: Antiparasitic activity against Leishmania braziliensis assessed as inhibition of infection with mouse J774.A1 cells measured as >10 parasites per cell at 1 uM after 4 hrs; format: functional; design: scale not given: the % may be the effect or the level left
Leishmania braziliensis [26] = experiment: Antiparasitic activity against Leishmania braziliensis assessed as inhibition of infection with mouse J774.A1 cells measured as <5 parasites per cell at 1 uM after 4 hrs; format: functional; design: scale not given: the % may be the effect or the level left

For `CC(C)[C@@]12CC[C@]3(C=O)CC[C@]4(C)C(=C31)C(C[C@@H]1[C@@]3(C)CC[C@H](O)C(C)(C)[C@@H]3CC[C@]14C)n1c(=O)n(C)c(=O)n12` (some centres undefined), the Activity (Leishmania braziliensis [1]) was “Active”, the Activity (Leishmania braziliensis [2]) was 5.09% and the Activity (Leishmania braziliensis [3]) was 5.09%. It also gave an Activity (Leishmania braziliensis [4]) of 77.41%, an Activity (Leishmania braziliensis [5]) of 90.02% and an IC50 (J774.A1) greater than 10 µM. For the same compound, the Activity (Leishmania braziliensis [6]) was 6.83%, the Activity (Leishmania braziliensis [7]) was 13.7% and the Activity (Leishmania braziliensis [8]) was 50%. The Activity (Leishmania braziliensis [9]) was 56.7%, the Activity (Leishmania braziliensis [10]) was 62.3% and the Activity (Leishmania braziliensis [11]) was 84.09%. The Activity (Leishmania braziliensis [12]) was 14.4%, the selectivity ratio [13] was greater than 5 and the Activity (Leishmania braziliensis [14]) was 12.7%. For the same compound, the inhibition at 1 µM (Leishmania braziliensis [15]) was 25%, the IC50 (Leishmania braziliensis [16]) was 2.06 µM and the Activity (Leishmania braziliensis [17]) was 9.73%. The Activity (Leishmania braziliensis [18]) was 7.29% and the Activity (Leishmania braziliensis [19]) was 15.93%.
In the case of `C=C(C)[C@@H]1CC[C@]2(/C=N/O)CC[C@]3(C)[C@H](CC[C@@H]4[C@@]5(C)CC[C@H](O)C(C)(C)[C@@H]5CC[C@]43C)[C@@H]12`, the Activity (Leishmania braziliensis [1]) is reported as “Active”, the IC50 (J774.A1) is reported as greater than 10 µM and the selectivity ratio [13] is reported as greater than 2.5. It also gave an inhibition at 1 µM (Leishmania braziliensis [15]) of 66%, an inhibition at 10 µM (Leishmania braziliensis [20]) of 50% and an IC50 (Leishmania braziliensis [16]) of 4.12 µM.
With `CC(C)[C@@]12CC[C@]3(COC=O)CC[C@]4(C)C(=C31)C(C[C@@H]1[C@@]3(C)CC[C@H](OC=O)C(C)(C)[C@@H]3CC[C@]14C)n1c(=O)n(C)c(=O)n12` (some centres undefined) the Activity (Leishmania braziliensis [2]) was 25.15%, the Activity (Leishmania braziliensis [3]) was 3.86% and the Activity (Leishmania braziliensis [4]) was 76.14%. It also gave an Activity (Leishmania braziliensis [5]) of 59.79%, an IC50 (J774.A1) greater than 10 µM and an Activity (Leishmania braziliensis [6]) of 6.34%. For the same compound, the Activity (Leishmania braziliensis [7]) was 13.4%, the Activity (Leishmania braziliensis [8]) was 55% and the Activity (Leishmania braziliensis [9]) was 46.6%. The Activity (Leishmania braziliensis [10]) was 59%, the Activity (Leishmania braziliensis [11]) was 61.91% and the Activity (Leishmania braziliensis [12]) was 10.3%. For the same compound, the selectivity ratio [13] was greater than 40, the Activity (Leishmania braziliensis [14]) was 17.7% and the inhibition at 1 µM (Leishmania braziliensis [15]) was 25%. The IC50 (Leishmania braziliensis [16]) was 0.25 µM, the Activity (Leishmania braziliensis [17]) was 31.09% and the Activity (Leishmania braziliensis [21]) was “Dose-dependent effect”. It also gave an Activity (Leishmania braziliensis [18]) of 4.78% and an Activity (Leishmania braziliensis [19]) of 15.86%.
For `C=C(C)[C@@H]1CC[C@]2(C(=O)O)CC[C@]3(C)[C@H](CC[C@@H]4[C@@]5(C)CCC(=O)C(C)(C)[C@@H]5CC[C@]43C)[C@@H]12` [BETUNOLIC ACID], the inhibition at 10 µM (Leishmania braziliensis [20]) was 50%.
In the case of `C=C(C)[C@@H]1CC[C@]2(/C=N/O)CC[C@]3(C)[C@H](CC[C@@H]4[C@@]5(C)CC/C(=N\O)C(C)(C)[C@@H]5CC[C@]43C)[C@@H]12` [BETULIN-3,28-DIOXIME], the IC50 (J774.A1) is reported as greater than 10 µM, the selectivity ratio [13] is reported as greater than 3 and the inhibition at 1 µM (Leishmania braziliensis [15]) is reported as 25%. The inhibition at 10 µM (Leishmania braziliensis [20]) was 50%, the IC50 (Leishmania braziliensis [16]) was 3.35 µM and the Activity (Leishmania braziliensis [21]) was “Dose-dependent effect”.
In the case of `CC(=O)OC[C@]12CC[C@]3(C(C)C)C1=C1C(C[C@@H]4[C@@]5(C)CC[C@H](OC(C)=O)C(C)(C)[C@@H]5CC[C@@]4(C)[C@]1(C)CC2)n1c(=O)n(C)c(=O)n13` (some centres undefined), the inhibition at 10 µM (Leishmania braziliensis [20]) is reported as 50%.
For `C[C@@H]1[C@H](O)[C@@H](C)/C=C/C=C/C=C/C=C/C=C/C=C/C=C/[C@H](O[C@@H]2O[C@H](C)[C@@H](O)[C@H](N)[C@@H]2O)C[C@@H]2O[C@](O)(C[C@@H](O)C[C@@H](O)[C@H](O)CC[C@@H](O)C[C@@H](O)CC(=O)O[C@H]1C)C[C@H](O)[C@H]2C(=O)O` [AMPHOTERICIN B], the Activity (Leishmania braziliensis [22]) was 21.45%, the Activity (Leishmania braziliensis [23]) was 15.2% and the Activity (Leishmania braziliensis [24]) was 41.3%. It also gave an Activity (Leishmania braziliensis [25]) of 7.15% and an Activity (Leishmania braziliensis [26]) of 71.51%.
